Results on one compound are retold here after paper doi:10.1101/2023.03.31.535182v2 (biorxiv, 2023).

As usually defined, the Km is the concentration of substrate that gives half-maximal velocity.

For the assay, the system named is MsGH13. In words: UV/Vis release of 4-nitrophenolate at […] nm. Type of assay: biochemical, Marinovum sp. The following applies: 50 mM citric acid/phosphate, 150 mM NaCl, pH 6.5, 25 °C.

As for `O=[N+]([O-])c1ccc(O[C@H]2O[C@H](CO)[C@@H](O)[C@H](O)[C@H]2O)cc1` [PNPGlc], the Michaelis constant (Km) turned out to be 950 ± 470 µM.
